Experimental data published in PubChem BioAssay (NCI).
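96-well plates; 48 h exposure; 5 concentrations. Endpoints by linear interpolation between flanking doses. Not reached: highest tested concentration assigned. Here, GI50 denotes the concentration required for 50% inhibition of growth. TGI is the concentration that stops growth completely.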

What was measured:
Assay in all cases: DTP human tumour cell line panel, 48 h
SNB-75 CNS = tested on: SNB-75 CNS
SF-295 CNS = tested on: SF-295 CNS
HL-60(TB) leukemia = tested on: HL-60(TB) leukemia
NCI-H226 lung = tested on: NCI-H226 lung
OVCAR-5 ovarian = tested on: OVCAR-5 ovarian
NCI-H522 lung = tested on: NCI-H522 lung
HCC-2998 colon = tested on: HCC-2998 colon
SF-268 CNS = tested on: SF-268 CNS
UACC-257 melanoma = tested on: UACC-257 melanoma
A549 NSCLC = tested on: A549 NSCLC

Row | SMILES | TGI (SNB-75 CNS) [µM] | TGI (SF-295 CNS) [µM] | TGI (HL-60(TB) leukemia) [µM] | TGI (NCI-H226 lung) [µM] | TGI (OVCAR-5 ovarian) [µM] | TGI (NCI-H522 lung) [µM] | TGI (HCC-2998 colon) [µM] | TGI (SF-268 CNS) [µM] | TGI (UACC-257 melanoma) [µM] | TGI (A549 NSCLC) [µM] | GI50 (SNB-75 CNS) [µM] | GI50 (SF-295 CNS) [µM] | GI50 (HL-60(TB) leukemia) [µM] | GI50 (NCI-H226 lung) [µM] | GI50 (OVCAR-5 ovarian) [µM] | GI50 (NCI-H522 lung) [µM] | GI50 (HCC-2998 colon) [µM] | GI50 (SF-268 CNS) [µM] | GI50 (UACC-257 melanoma) [µM] | GI50 (A549 NSCLC) [µM]
1 | COc1ccc(/C(Cl)=C(\C=O)c2ccc([N+](=O)[O-])cc2)cc1 | 30.9 | 34.6 | 10.7 | 46.9 | > 100 | > 46.8 | 62.6 | 92.3 | 64.9 | 66.6 |  |  |  |  |  |  |  |  |  | 
2 | O=c1[nH]c(=O)n(C2OC(CO)C(O)C(O)C2O)cc1F (stereo not given) | > 100 | > 100 | > 74.5 | > 100 | > 100 | > 100 | > 100 | > 100 | > 100 | > 100 |  |  |  |  |  |  |  |  |  | 
3 | c1cc2c(ncc3cscc32)s1 | > 100 | > 100 | > 100 | > 100 | > 100 | > 100 | > 100 | > 100 | > 100 | > 100 |  |  |  |  |  |  |  |  |  | 
4 | COc1cc2c(c(OC)c1OC)-c1c(cc3c(c1OC)OCO3)C1OC2C(C)C1C (stereo not given) (tested in a mixture with another compound) | > 100 | > 100 | > 100 | > 100 | > 100 | > 100 | > 100 | > 100 | > 100 | > 100 |  |  |  |  |  |  |  |  |  | 
5 | O=C(/C=C/c1c(O)ccc2ccccc12)c1ccccc1 | 4.52 | > 100 | > 100 | > 100 | > 100 | > 100 | > 100 | > 100 | > 100 | > 100 |  |  |  |  |  |  |  |  |  | 
6 | Cc1[nH]c2ccccc2c1C1Cc2ccccc2N1C(=O)/C(Cl)=C/c1ccccc1 (stereo not given) | 99.6 | > 100 | > 100 | > 100 | > 100 | > 100 | > 100 | > 100 | > 100 | > 100 |  |  |  |  |  |  |  |  |  | 
7 | COC(=O)[C@H](Cc1c[nH]c2ccccc12)NC(=O)[C@@H](OC)[C@@H]1Cc2cc3cc(OC4CC(OC5CC(O)C(O)C(C)O5)C(O)C(C)O4)c(C)c(O)c3c(O)c2C(=O)[C@H]1OC1CC(OC2CC(OC3CC(C)(O)C(O)C(C)O3)C(O)C(C)O2)C(O)C(C)O1 (stereo not given in full) | 0.0244 | 3.21 | 0.386 | 0.145 | > 16.5 | 0.0552 | 0.0382 | 1.78 | 0.124 | > 16.5 | 0.00465 | 0.0112 | 0.0119 | 0.0065 | 0.0102 | 0.00509 | 0.00659 | 0.00891 | 0.00662 | 0.00873
8 | N#CCc1ccc(C(C#N)/C(CCCC(=O)Nc2cccc([N+](=O)[O-])c2)=N/NC(N)=S)cc1 (stereo not given) | > 100 | > 100 | > 100 | > 100 | > 100 | > 100 | > 100 | > 100 | > 100 | > 100 |  |  |  |  |  |  |  |  |  | 
9 | Cc1ccc2c(c1)CN(C(=O)CCC(=O)OCc1ccccc1)c1ccc(C)cc1CN2C(=O)CCC(=O)OCc1ccccc1 | 62.6 | > 100 | > 100 | > 100 | > 100 | > 100 | > 100 | > 100 | > 100 | > 100 |  |  |  |  |  |  |  |  |  | 
